Laboratory results as given in US11008325B2, “Inhibitors of cancer invasion, attachment, and/or metastasis” (VIRGINIA COMMONWEALTH UNIVERSITY, priority 2016, dated 2021).

Experiments:
melanocytes = assay: toxicity to melanocytes; type: cell-based; conditions: tested up to 100 μM
GBM6 cells = assay: orthotopic GBM6 xenograft model; type: in vivo, mice
Experimental: FIGS. 13A-13E. Effect of PDZ1i on survival in an in vivo model of glioma. GBM6 cells were pretreated for 2 hrs prior to intracranial injection with vehicle (DMSO) or PDZ1i and after 7 days, brain tissue was isolated and sectioned at injection site. FIG. 13A, brain tissue at site of injection of DMSO treated cells; FIG. 13B, brain tissue are site of injection of PDZ1i treated cells. 7 days after tumor implantation, mice received either vehicle or PDZ1i (30 mg/kg) three times per week for 3 weeks. Brain tissue was isolated and analyzed via H&E stain, FIG. 13C, brain tissue from mice treated with vehicle; FIG. 13D, brain tissue from mice treated with PDZ1i. FIG. 13E, Kaplan-Myer curves of these groups based on animal survival. **p<0.01.
PDZ1i is effective in reducing tumor invasion in an animal model of GBM. To test the efficacy of PDZ1i, we used an orthotopic xenograft model with GBM6 cells that were pretreated with either DMSO or PDZ1i and injected intracranially to form tumors. Seven d post injection tumor and brain tissue were isolated for sectioning. […] Separately, untreated cells were injected and tumors established, then mice were treated IP with either DMSO or PDZ1i (30 mg/kg) three times per wk for two wk. […]

U1242-Luc cells = assay: intracranial U1242-Luc tumors, PDZ1i with or without radiation; type: in vivo, nude mice
Experimental: FIGS. 14A-14F. PDZ1i treatment combined with radiation in an in vivo model of GBM. FIG. 14A. U1242-luc cells were injected intracranially into nude mice. After 7 days mice were randomized to 4 groups, and mice receiving therapy were treated on days 11-14 as pictured. FIG. 14B. Kaplan-Meier survival curves for each treatment group. Median survival as listed. Two brain tissue samples were isolated for each group, sectioned, and H and E staining is shown. FIG. 14C, DMSO treated mice, FIG. 14D, PDZ1i treated mice, FIG. 14E, mice treated with radiation and DMSO; FIG. 14F, mice treated with radiation and PDZ1i.
PDZ1i combined with radiation extends survival and reduces GBM invasion in vivo. We next investigated the combination of PDZ1i with radiotherapy in vivo. U1242-Luc cells were injected intracranially under anesthesia and formed tumors, confirmed by imaging at 7 d post-injection. At this point, mice were randomized to 4 groups: DMSO treatment, PDZ1i treatment (30 mg/kg), DMSO+IR, and PDZ1i+IR. Treatment began on 11 d post-injection and mice receiving radiation were treated with 2.5 Gy for 4 consecutive d. PDZ1i was administered 2 h prior to radiation treatment on each of the 4 treatment d (FIG. 14A). […] To investigate this, brain tissue sections were collected and H & E stains were analyzed. […]

Structure (SMILES): Cc1cc(NC(=O)c2nc3[nH]c4c(c(=O)n3n2)CCC4)c(C)cc1NC(=O)CCc1nnc(-c2ccccc2)o1 [113B7, N-(2,5-dimethyl-4-(3-(5-phenyl-1,3,4-oxadiazol-2-yl)propanamido)phenyl)-8-oxo-5,6,7,8-tetrahydro-4H-cyclopenta[d][1,2,4]triazolo[1,5-a]pyrimidine-2-carboxamide]
- toxicity to melanocytes (melanocytes): did not show any significant toxicity
- survival (GBM6 cells; PDZ1i 30 mg/kg IP three times per wk): significantly increased
- tumor size and demarcation (GBM6 cells; cells pretreated with PDZ1i, 7 d post intracranial injection): noticeably smaller and more demarcated neoplasms
- average survival (U1242-Luc cells; PDZ1i 30 mg/kg 2 h prior to IR, 2.5 Gy for 4 consecutive d): 78.8 days
- average survival (U1242-Luc cells; PDZ1i 30 mg/kg alone): 54.7 days
